Laboratory results as given in patent US6117840A, “CS-1 peptidomimetics, compositions and methods of using the same” (Cytel Corporation, priority 1997, dated 2000).
Peptide text beside a SMILES is read from it.

Test system: Jurkat T cell line
Test: Binding of Jurkat cells to frozen human RA synovial sections
Format: cell-based
Details: 10-mer at 500 μg/ml; inhibitor peptide at its IC50
Description: Binding studies were carried out using the Jurkat T cell line and frozen RA synovial sections. […] Stimulated MOLT-4 cells behaved similarly.

## CC[C@H](C)[C@H](NC(=O)[C@H](CCC(=O)O)NC(=O)[C@@H]1CCCN1C(=O)CN)C(=O)N[C@@H](CC(C)C)C(=O)N[C@@H](CC(=O)O)C(=O)N[C@H](C(=O)N1CCC[C@H]1C(=O)N[C@@H](CO)C(=O)N[C@H](C(=O)O)[C@@H](C)O)C(C)C [G P E I L D V P S T free amine free acid, GPEILDVPST] (H-GPEILDVPST-OH)
  inhibition of Jurkat cell adhesion to RA synovial sections: could be inhibited
